# Species: Rattus norvegicus
# Assay: Open TG-GATES - Regimen: Single
# Assay type: toxicity, organism-based, Sprague-Dawley
# Set-up: regimen Single, gender Male, age 6 weeks
# Settings: in vivo, po, 0 mg/kg, route gavage, dose level Control; for APTT / Bas / Eos / Fbg / Hb / Ht / Lym / MCH / MCHC / MCV / Mono / Neu / PT / Plat / RBC / Ret / WBC: tissue Blood; for KIDNEY_L / KIDNEY_R / KIDNEY_TOTAL: tissue Kidney; for LIVER: tissue Liver; for A/G / ALP / ALT / AST / BUN / CRE / Ca / Cl / DBIL / GLC / IP / K / LDH / Na / PL / RALB / TBIL / TC / TG / TP / gamma-GTP: tissue Plasma
structure (smiles),measurement,setting,value
CN(C)CCC=C1c2ccccc2CCc2ccccc21 [AMITRIPTYLINE],TERMINAL_BW,3 h,194 g
same,APTT,3 h,16.6 s
same,Bas,3 h,0%
same,Eos,3 h,0.8%
same,Fbg,3 h,235.6 mg/dL
same,Hb,3 h,12.8 g/dL
same,Ht,3 h,39.8%
same,Lym,3 h,77.6%
same,MCH,3 h,20.9 pg
same,MCHC,3 h,32.3%
same,MCV,3 h,64.6 fL
same,Mono,3 h,3.4%
same,Neu,3 h,17.2%
same,PT,3 h,16.2 s
same,Plat,3 h,103.9 x10_4/uL
same,RBC,3 h,616.6 x10_4/ul
same,Ret,3 h,9.3%
same,WBC,3 h,90.6 x10_2/uL
same,KIDNEY_L,3 h,0.9 g
same,KIDNEY_R,3 h,0.9 g
same,KIDNEY_TOTAL,3 h,1.7 g
same,LIVER,3 h,8.2 g
same,A/G,3 h,0.8
same,ALP,3 h,1452 IU/L
same,ALT,3 h,48.2 IU/L
same,AST,3 h,80.8 IU/L
same,BUN,3 h,8.8 mg/dL
same,CRE,3 h,0.2 mg/dL
same,Ca,3 h,10.7 mg/dL
same,Cl,3 h,106 meq/L
same,DBIL,3 h,0.01 mg/dL
same,GLC,3 h,183.6 mg/dL
same,IP,3 h,9.2 mg/dL
same,K,3 h,4.1 meq/L
same,LDH,3 h,66.2 IU/L
same,Na,3 h,143 meq/L
same,PL,3 h,124.4 mg/dL
same,RALB,3 h,2.4 g/dL
same,TBIL,3 h,0.062 mg/dL
same,TC,3 h,67.6 mg/dL
same,TG,3 h,44.4 mg/dL
same,TP,3 h,5.3 g/dL
same,gamma-GTP,3 h,1 IU/L
same,TERMINAL_BW,6 h,193.8 g
same,APTT,6 h,17 s
same,Bas,6 h,0%
same,Eos,6 h,0.8%
same,Fbg,6 h,256.2 mg/dL
same,Hb,6 h,12.7 g/dL
same,Ht,6 h,38.9%
same,Lym,6 h,72.6%
same,MCH,6 h,20.6 pg
same,MCHC,6 h,32.6%
same,MCV,6 h,63.3 fL
same,Mono,6 h,2.4%
same,Neu,6 h,23.2%
same,PT,6 h,15.8 s
same,Plat,6 h,119.8 x10_4/uL
same,RBC,6 h,615.8 x10_4/ul
same,Ret,6 h,8.9%
same,WBC,6 h,66 x10_2/uL
same,KIDNEY_L,6 h,0.9 g
same,KIDNEY_R,6 h,0.8 g
same,KIDNEY_TOTAL,6 h,1.7 g
same,LIVER,6 h,8.2 g
same,A/G,6 h,0.9
same,ALP,6 h,1334.2 IU/L
same,ALT,6 h,44.6 IU/L
same,AST,6 h,74.4 IU/L
same,BUN,6 h,8.6 mg/dL
same,CRE,6 h,0.1 mg/dL
same,Ca,6 h,10.7 mg/dL
same,Cl,6 h,105.8 meq/L
same,DBIL,6 h,0.008 mg/dL
same,GLC,6 h,173.6 mg/dL
same,IP,6 h,9.8 mg/dL
same,K,6 h,4.2 meq/L
same,LDH,6 h,62 IU/L
same,Na,6 h,142.6 meq/L
same,PL,6 h,142.6 mg/dL
same,RALB,6 h,2.5 g/dL
same,TBIL,6 h,0.06 mg/dL
same,TC,6 h,78.4 mg/dL
same,TG,6 h,67 mg/dL
same,TP,6 h,5.4 g/dL
same,gamma-GTP,6 h,1 IU/L
same,TERMINAL_BW,9 h,191.9 g
same,APTT,9 h,16 s
same,Bas,9 h,0%
same,Eos,9 h,1%
same,Fbg,9 h,295.6 mg/dL
same,Hb,9 h,12.8 g/dL
same,Ht,9 h,39.1%
same,Lym,9 h,77.6%
same,MCH,9 h,20.9 pg
same,MCHC,9 h,32.8%
same,MCV,9 h,63.9 fL
same,Mono,9 h,2.4%
same,Neu,9 h,18.6%
same,PT,9 h,15.2 s
same,Plat,9 h,119.1 x10_4/uL
same,RBC,9 h,611.8 x10_4/ul
same,Ret,9 h,8.5%
same,WBC,9 h,71.6 x10_2/uL
same,KIDNEY_L,9 h,0.9 g
same,KIDNEY_R,9 h,0.9 g
same,KIDNEY_TOTAL,9 h,1.7 g
same,LIVER,9 h,7.8 g
same,A/G,9 h,0.8
same,ALP,9 h,1549.8 IU/L
same,ALT,9 h,40.8 IU/L
same,AST,9 h,71.4 IU/L
same,BUN,9 h,8.8 mg/dL
same,CRE,9 h,0.2 mg/dL
same,Ca,9 h,10.7 mg/dL
same,Cl,9 h,106.6 meq/L
same,DBIL,9 h,0.01 mg/dL
same,GLC,9 h,174.8 mg/dL
same,IP,9 h,10 mg/dL
same,K,9 h,4 meq/L
same,LDH,9 h,60.4 IU/L
same,Na,9 h,142.6 meq/L
same,PL,9 h,140.4 mg/dL
same,RALB,9 h,2.5 g/dL
same,TBIL,9 h,0.06 mg/dL
same,TC,9 h,79.4 mg/dL
same,TG,9 h,44 mg/dL
same,TP,9 h,5.4 g/dL
same,gamma-GTP,9 h,1 IU/L
same,TERMINAL_BW,24 h,208.1 g
same,APTT,24 h,16.3 s
same,Bas,24 h,0.4%
same,Eos,24 h,1%
same,Fbg,24 h,266 mg/dL
same,Hb,24 h,12.5 g/dL
same,Ht,24 h,38.5%
same,Lym,24 h,77.8%
same,MCH,24 h,21.2 pg
same,MCHC,24 h,32.4%
same,MCV,24 h,65.5 fL
same,Mono,24 h,3.2%
same,Neu,24 h,17%
same,PT,24 h,16.3 s
same,Plat,24 h,110 x10_4/uL
same,RBC,24 h,589.4 x10_4/ul
same,Ret,24 h,9.5%
same,WBC,24 h,101.9 x10_2/uL
same,KIDNEY_L,24 h,0.9 g
same,KIDNEY_R,24 h,0.9 g
same,KIDNEY_TOTAL,24 h,1.8 g
same,LIVER,24 h,9.6 g
same,A/G,24 h,0.8
same,ALP,24 h,1573.8 IU/L
same,ALT,24 h,48.2 IU/L
same,AST,24 h,77.4 IU/L
same,BUN,24 h,15.4 mg/dL
same,CRE,24 h,0.2 mg/dL
same,Ca,24 h,11.1 mg/dL
same,Cl,24 h,105 meq/L
same,DBIL,24 h,0.016 mg/dL
same,GLC,24 h,186.4 mg/dL
same,IP,24 h,8.2 mg/dL
same,K,24 h,4 meq/L
same,LDH,24 h,90.2 IU/L
same,Na,24 h,143.2 meq/L
same,PL,24 h,153.8 mg/dL
same,RALB,24 h,2.6 g/dL
same,TBIL,24 h,0.054 mg/dL
same,TC,24 h,79.4 mg/dL
same,TG,24 h,97.4 mg/dL
same,TP,24 h,5.6 g/dL
same,gamma-GTP,24 h,0.6 IU/L

# Source: ChEMBL document CHEMBL3885861, “Open TG-GATES”
